Source: patent US20230393140A1, “BINDING ASSAYS INVOLVING A PLURALITY OF SYNTHETIC COMPOUNDS, TARGETS, AND COUNTER TARGETS” (SRI International, priority 2020, published 2023)
Read-outs that look alike come from different tables or passages of the source. Numbered stars: 1 amine (or outer) side, 2 acyl side, 3 side chain; on linkers, the order of the positions; unused ones are H or OH. Square brackets hold non-standard residues; d marks the D form. Peptide text beside a SMILES is read from it. * marks the point of attachment. 5FAM = O=C1OC2(c3ccc(O)cc3Oc3cc(O)ccc32)c2ccc(C(=O)*)cc21; NHCH2C6H4(4-CH2CONH2) = NC(=O)Cc1ccc(CN*)cc1; X1 = O=C(Cc1ccc(CN[*:1])cc1)[*:2]

How the values were obtained:
ASGPR = molecular target: T1, ASGPR (Homo sapiens, UniProt P07306); assay: MST binding affinity of resynthesized NNP hits to ASGPR; conditions: read-out: KD (nM) [95% conf. int]; MST; NNP1 library hit; target ASGPR; one-site binding model
T1 construct: purchased R&D Systems, Inc. 4394-AS
T1 sequence (P07306 1-291): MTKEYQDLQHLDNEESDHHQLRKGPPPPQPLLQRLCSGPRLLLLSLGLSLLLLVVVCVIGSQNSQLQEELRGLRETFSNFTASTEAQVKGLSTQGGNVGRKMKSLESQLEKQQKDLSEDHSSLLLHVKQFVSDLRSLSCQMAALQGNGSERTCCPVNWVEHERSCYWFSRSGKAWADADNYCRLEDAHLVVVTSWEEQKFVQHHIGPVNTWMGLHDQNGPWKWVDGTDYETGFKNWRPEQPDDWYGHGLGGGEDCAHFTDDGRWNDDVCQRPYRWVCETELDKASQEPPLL
Procedure: (§1) Hit binding affinity to various targets were determined using Microscale Thermophoresis (MST). MST experiments were performed on a Monolith NT.115pico (NanoTemper Technologies GmbH, Munich, Germany). Measurements were performed at room temperature, in triplicate with incubation periods of 15, 30 and 45 minutes. […] Targets were labeled using Nanotemper Monolith 2nd Generation Protein Labeling Kits. RED-MALEIMIDE (Maleimide-647-dye) labeling kit was used for K-Ras and RED-NHS (NHS-647-dye) labeling kit was used for IL-6, IL-6R, TNFα and ASGPR. The buffer for the ASGPR contained 20 mM HEPES pH 7.4, 150 mM NaCl, 10 mM MgCl2, 2 mM CaCl2, 0.05% Pluronic F-127, and 1 mM DTT; for IL-6 contained 20 mM HEPES pH 7.4, 150 mM KCl, 10 mM MgCl2, and 0.1% Pluronic F-127; for the soluble IL-6 receptor 20 mM HEPES pH 7.4, 150 mM NaCl, 10 mM MgCl2, and 0.05% Tween-20; for K-Ras 20 mM HEPES pH 7.4, 150 mM NaCl, 10 mM MgCl2, 0.05% Tween-20 and 1 mM DTT; for TNFα 10 mM HEPES pH 7.4, 150 mM NaCl, 10 mM MgCl2, 0.05% Polysorbate-20. Triplicate data was analyzed using MO.AffinityAnalysis software (NanoTemper Technologies GmbH).

IL-6 = molecular target: T2, IL-6 (Homo sapiens, UniProt P05231); assay: MST binding affinity of resynthesized NNP hits to IL-6
T2 construct: purchased Creative Biomart IL6-12H
Procedure: as §1

[1] = NNP2 library hit, target IL-6, one-site binding model

SMILES	Kd (ASGPR) [nM]	Kd (IL-6; [1]) [nM]	other results
CC(C)C[C@H](NC(=O)[C@@H](CCCNC(=N)N)NC(=O)[C@@H](CCCCN)NC(=O)[C@@H](CCC(=O)O)NC(=O)[C@@H](Cc1ccccc1)NC(=O)Cc1ccc(CNC(=O)[C@H](Cc2ccccc2)NC(=O)[C@@H](CO)NC(=O)[C@@H](CCC(=O)O)NC(=O)[C@H]2CCCN2C(=O)[C@@H](CC(C)C)NC(=O)c2ccc3c(c2)C(=O)OC32c3ccc(O)cc3Oc3cc(O)ccc32)cc1)C(=O)NCc1ccc(CC(=O)N[C@H](Cc2ccc(O)cc2)C(=O)N[C@H](CC(N)=O)C(=O)N[C@H](CCCNC(=N)N)C(=O)N[C@H](Cc2c[nH]cn2)C(=O)N[C@@H](Cc2ccccc2)C(=O)NCc2ccc(CC(=O)N[C@H](Cc3ccc(O)cc3)C(=O)N[C@@H](C(=O)N3CCC[C@@H]3C(=O)N[C@H](CCCNC(=N)N)C(=O)N[C@@H](C)C(=O)NCc3ccc(CC(=O)N[C@H](CCCNC(=N)N)C(=O)N[C@H](Cc4ccccc4)C(=O)N4CCC[C@@H]4C(=O)N[C@@H](C(=O)NCC(=O)NCc4ccc(CC(=O)N[C@H](CC(C)C)C(=O)N5CCC[C@@H]5C(=O)N[C@H](CCCNC(=N)N)C(=O)N[C@@H](C(=O)NCC(=O)NCc5ccc(CC(N)=O)cc5)[C@H](C)O)cc4)C(C)C)cc3)[C@H](C)O)cc2)cc1 [ASGPR-9-12] (5FAM-[dL][dP][dE][dS]F[X1][dF][dE][dK][dR]L[X1][dY][dN][dR][dH]F[X1][dY][dT][dP][dR]A[X1][dR][dF][dP][dV]G[X1][dL][dP][dR][dT]G-{NHCH2C6H4(4-CH2CONH2)})	6		
CC(C)C[C@H](NC(=O)CNC(=O)[C@@H](Cc1c[nH]cn1)NC(=O)[C@@H](CCCNC(=N)N)NC(=O)[C@H]1CCCN1C(=O)Cc1ccc(CNC(=O)[C@H](Cc2ccccc2)NC(=O)[C@@H](CO)NC(=O)[C@@H](CCCNC(=N)N)NC(=O)[C@H]2CCCN2C(=O)CNC(=O)Cc2ccc(CNC(=O)[C@H](C)NC(=O)[C@@H](CCCNC(=N)N)NC(=O)[C@H]3CCCN3C(=O)[C@H](NC(=O)CNC(=O)Cc3ccc(CNC(=O)[C@H](Cc4ccccc4)NC(=O)[C@@H](CO)NC(=O)[C@@H](CCC(=O)O)NC(=O)[C@H]4CCCN4C(=O)[C@@H](CC(C)C)NC(=O)c4ccc5c(c4)C(=O)OC54c5ccc(O)cc5Oc5cc(O)ccc54)cc3)C(C)C)cc2)cc1)C(=O)NCc1ccc(CC(=O)N[C@H](CCCNC(=N)N)C(=O)N[C@H](Cc2ccccc2)C(=O)N2CCC[C@@H]2C(=O)N[C@@H](C(=O)NCC(=O)NCc2ccc(CC(=O)N[C@H](CC(C)C)C(=O)N3CCC[C@@H]3C(=O)N[C@H](CCCNC(=N)N)C(=O)N[C@@H](C(=O)NCC(=O)NCc3ccc(CC(N)=O)cc3)[C@H](C)O)cc2)C(C)C)cc1 [ASGPR-9-14] (5FAM-[dL][dP][dE][dS]F[X1]G[dV][dP][dR]A[X1]G[dP][dR][dS]F[X1][dP][dR][dH]GL[X1][dR][dF][dP][dV]G[X1][dL][dP][dR][dT]G-{NHCH2C6H4(4-CH2CONH2)})	20		
CC(C)C[C@H](NC(=O)[C@@H](CCCNC(=N)N)NC(=O)[C@@H](Cc1c[nH]c2ccccc12)NC(=O)Cc1ccc(CNC(=O)[C@H](Cc2ccccc2)NC(=O)[C@@H](CO)NC(=O)[C@@H](CCCNC(=N)N)NC(=O)Cc2ccc(CNC(=O)[C@@H](NC(=O)[C@@H](CO)NC(=O)[C@@H](Cc3ccc(O)cc3)NC(=O)Cc3ccc(CNC(=O)[C@H](CC(C)C)NC(=O)[C@@H](CC(C)C)NC(=O)[C@@H](Cc4ccc(O)cc4)NC(=O)c4ccc5c(c4)C(=O)OC54c5ccc(O)cc5Oc5cc(O)ccc54)cc3)C(C)C)cc2)cc1)C(=O)NCc1ccc(CC(=O)N[C@H](Cc2c[nH]c3ccccc23)C(=O)N[C@H](CCCNC(=N)N)C(=O)N[C@H](C(=O)NCc2ccc(CC(=O)N[C@H](CCCNC(=N)N)C(=O)N[C@H](Cc3ccc(O)cc3)C(=O)N[C@@H](CC(C)C)C(=O)NCc3ccc(CC(=O)N[C@H](CCC(=O)O)C(=O)N[C@H](Cc4ccc(O)cc4)C(=O)N[C@H](C(=O)NCc4ccc(CC(=O)N[C@H](CCCCN)C(=O)N[C@H](Cc5ccccc5)C(=O)N[C@@H](Cc5ccccc5)C(=O)NCc5ccc(CC(=O)N[C@H](Cc6ccc(O)cc6)C(=O)N[C@H](CCCNC(=N)N)C(=O)N[C@@H](Cc6ccccc6)C(=O)NCc6ccc(CC(N)=O)cc6)cc5)cc4)C(C)C)cc3)cc2)C(C)C)cc1 [IL6-65-1] (5FAM-[dY][dL]L[X1][dY][dS]V[X1][dR][dS]F[X1][dW][dR]L[X1][dW][dR]V[X1][dR][dY]L[X1][dE][dY]V[X1][dK][dF]F[X1][dY][dR]F-{NHCH2C6H4(4-CH2CONH2)})			Kd (IL-6; read-out: KD (nM) [95% conf. int], NNP2 library hit, target IL-6, one-site binding model): 500 nM
CC(C)C[C@H](NC(=O)[C@@H](CC(N)=O)NC(=O)[C@@H](CCCCN)NC(=O)Cc1ccc(CNC(=O)[C@H](C)NC(=O)[C@H](NC(=O)[C@@H](Cc2ccccc2)NC(=O)Cc2ccc(CNC(=O)[C@H](Cc3ccccc3)NC(=O)[C@@H](CCCCN)NC(=O)[C@@H](C)NC(=O)Cc3ccc(CNC(=O)[C@H](C)NC(=O)[C@@H](CCCNC(=N)N)NC(=O)[C@@H](Cc4ccccc4)NC(=O)Cc4ccc(CNC(=O)[C@H](C)NC(=O)[C@@H](CCCCN)NC(=O)[C@H]5CCCN5C(=O)Cc5ccc(CNC(=O)[C@H](Cc6ccccc6)NC(=O)[C@@H](C)NC(=O)[C@@H](C)NC(=O)Cc6ccc(CNC(=O)[C@H](Cc7ccccc7)NC(=O)[C@@H](CC(C)C)NC(=O)[C@@H](Cc7c[nH]cn7)NC(=O)c7ccc8c(c7)C(=O)OC87c8ccc(O)cc8Oc8cc(O)ccc87)cc6)cc5)cc4)cc3)cc2)[C@H](C)O)cc1)C(=O)NCc1ccc(CC(=O)N[C@@H](C(=O)N[C@H](Cc2c[nH]cn2)C(=O)N[C@@H](CC(C)C)C(=O)NCc2ccc(CC(=O)N[C@H](Cc3ccccc3)C(=O)N[C@H](CCCCN)C(=O)NCC(=O)NCc3ccc(CC(N)=O)cc3)cc2)[C@H](C)O)cc1 [IL6-65-2, Fluorescein-(D)His-(D)Leu-(L)Phe-PAM-(D)Ala-(D)Ala-(L)Phe-PAM-(D)Pro-(D)Lys-(L)Ala-PAM-(D)Phe-(D)Arg-(L)Ala-PAM-(D)Ala-(D)Lys-(L)Phe-PAM-(D)Phe-(D)Thr-(L)Ala-PAM-(D)Lys-(D)Asn- (L)Leu-PAM-(D)Thr-(D)His-(L)Leu-PAM-(D)Phe-(D)Lys-Gly-PAM] (5FAM-[dH][dL]F[X1][dA][dA]F[X1][dP][dK]A[X1][dF][dR]A[X1][dA][dK]F[X1][dF][dT]A[X1][dK][dN]L[X1][dT][dH]L[X1][dF][dK]G-{NHCH2C6H4(4-CH2CONH2)})		400	
CC(C)C[C@H](NC(=O)[C@@H](CCCNC(=N)N)NC(=O)[C@@H](Cc1c[nH]c2ccccc12)NC(=O)Cc1ccc(CNC(=O)[C@H](Cc2ccccc2)NC(=O)[C@@H](CO)NC(=O)[C@@H](CCCNC(=N)N)NC(=O)Cc2ccc(CNC(=O)[C@H](Cc3ccccc3)NC(=O)[C@@H](CO)NC(=O)[C@@H](CCC(=O)O)NC(=O)Cc3ccc(CNC(=O)[C@H](Cc4ccccc4)NC(=O)[C@@H](Cc4c[nH]c5ccccc45)NC(=O)[C@@H](CCCNC(=N)N)NC(=O)c4ccc5c(c4)C(=O)OC54c5ccc(O)cc5Oc5cc(O)ccc54)cc3)cc2)cc1)C(=O)NCc1ccc(CC(=O)NCC(=O)N[C@H](C)C(=O)N[C@H](C(=O)NCc2ccc(CC(=O)N[C@H](CC(N)=O)C(=O)N[C@H](CCCNC(=N)N)C(=O)N[C@@H](Cc3ccccc3)C(=O)NCc3ccc(CC(=O)N[C@H](C)C(=O)N[C@H](CO)C(=O)N[C@@H](Cc4ccccc4)C(=O)NCc4ccc(CC(=O)N5CCC[C@@H]5C(=O)N[C@H](CCCNC(=N)N)C(=O)N[C@@H](C)C(=O)NCc5ccc(CC(=O)N[C@H](Cc6ccccc6)C(=O)N[C@H](CCCCN)C(=O)NCC(=O)NCc6ccc(CC(N)=O)cc6)cc5)cc4)cc3)cc2)C(C)C)cc1 [IL6-65-3, Fluorescein-(D)Arg-(D)Trp-(L)Phe-PAM-(D)Glu-(D)Ser-(L)Phe-PAM-(D)Arg-(D)Ser-(L)Phe-PAM-(D)Trp-(D)Arg-(L)Leu-PAM-Gly-(D)Ala-(L)Val-PAM-(D)Asn-(D)Arg-(L)Phe-PAM-(D)Ala-(D)Ser-(L)Phe- PAM-(D)Pro-(D)Arg-(L)Ala-PAM-(D)Phe-(D)Lys-Gly-PAM] (5FAM-[dR][dW]F[X1][dE][dS]F[X1][dR][dS]F[X1][dW][dR]L[X1]G[dA]V[X1][dN][dR]F[X1][dA][dS]F[X1][dP][dR]A[X1][dF][dK]G-{NHCH2C6H4(4-CH2CONH2)})		90	
